In paper PMC6804006, “Synthesis, Biological Activities and Docking Studies of Novel 4-(Arylaminomethyl)benzamide Derivatives as Potential Tyrosine Kinase Inhibitors” (Molecules, 2019):

Experiments:
PDGFRa = target: T1, PDGFRa (Homo sapiens, UniProt P16234); test: ADP-Glo kinase inhibitory assay, PDGFRa; assay type: biochemical; settings: read-out: % Inhibition at 10 nM, PDGFRa
T1 construct: purchased Promega
Experimental: (§1) We investigated the kinase selectivity of targeted compounds against eight receptor tyrosine kinases including EGFR (epidermal growth factor receptor), HER-2 and HER4 (human epidermal growth factor receptor), IGF1R (insulin like growth factor 1 receptor), InsR (gene insulin receptor), KDR (kinase insert domain receptor), and PDGFRa and PDGFRb (platelet-derived growth factor receptors). The assay was performed using the Kinase-Glo Plus luminescence kinase assay kit (TK-1+ADP-Glo™, Promega, San Diego, CA, USA). It measures kinase activity by quantitating the amount of ATP remaining in solution following a kinase reaction.
(§2) The assay was performed using a Kinase Selectivity Profiling System (TK-1+ADP-Glo™ Assay and TK-2+ADP-Glo™ Assay, Promega), where the kinase activity was measured by quantifying the amount of ADP produced during a kinase reaction. The assay is performed in two steps; firstly, after the kinase reaction, an equal volume of ADP-Glo™ Reagent is added to terminate the kinase reaction and deplete the remaining ATP. Secondly, the Kinase Detection Reagent is added to simultaneously convert ADP to ATP and allow the newly synthesized ATP to be measured using a luciferase/luciferin reaction. The luminescent signal generated is proportional to the ADP concentration produced and is correlated with kinase activity. Our compounds were diluted with kinase buffer (5% DMSO), and 1 μL of the dilution was added to a 5-μL reaction so that the final concentration of DMSO was 1% in all of reactions. All of the enzymatic reactions were conducted at 23 °C for 60 min. The 5-μL reaction mixture contained 1µL of the compound solution, 2µL of the enzyme solution, and 2 µL of kinase substrate. After the enzymatic reaction, 5 µL of ADP-Glo™ Reagent (Promega, USA) was added to each reaction, and the plate was incubated for 40 min at 23 °C. Then, 10 µL of Kinase Detection Reagent (Promega, USA) was added to each reaction, and the plate was incubated for 30 min at 23 °C. Luminescence signal was measured using an Infinite M 200 plate reader (Tecan, Switzerland).
(§3) Kinase activity assays were performed in duplicate at each concentration. The luminescence data were analyzed using the computer software, Magellan™. The difference between luminescence intensities in the absence of Kinase (Lut) and in the presence of Kinase (Luc) was defined as 100% activity (Lut − Luc).

HER-4 = target: T2, HER-4 (Homo sapiens, UniProt Q15303); test: ADP-Glo kinase inhibitory assay, HER-4; assay type: biochemical; settings: for inhibition at 0.01 µM: read-out: % Inhibition at 10 nM, HER-4
T2 construct: purchased Promega
Experimental: as §1, §2, §3

HER-2 = target: T3, HER-2 (Homo sapiens, UniProt P04626); test: ADP-Glo kinase inhibitory assay, HER-2; assay type: biochemical; settings: read-out: % Inhibition at 10 nM, HER-2
T3 construct: purchased Promega
Experimental: as §1, §2, §3

InsR = target: T4, InsR (Homo sapiens, UniProt P06213); test: ADP-Glo kinase inhibitory assay, InsR; assay type: biochemical; settings: for selectivity for the gene insulin receptor, in words: 10 nM, panel of eight receptor tyrosine kinases; for inhibition at 0.01 µM: read-out: % Inhibition at 10 nM, InsR
T4 construct: purchased Promega
Experimental: as §1, §2, §3

[1] = test system: K-562 (chronic myelogenous leukemia); test: MTT anti-proliferative assay, K-562; assay type: cell-based; settings: Homo sapiens, K562, 48 h, 50% growth inhibition
Experimental: (§4) Each in vitro experiment was performed at least in triplicate, and the standard deviation of absorbance was less than 10% of the mean. For the in vitro assays, a stock solution (1% DMSO in the appropriate buffer with the tested compound diluted under sonication) was prepared from which several dilutions were made with the appropriate buffer.
(§5) Human cell lines were obtained from the Institute of Cytology, Russian Academy of Sciences. […] Cellular sensitivities to clofarabine and its lipid derivatives were measured with the MTT assay. Cells were plated in triplicate in 96-well plates (10^5 cells/well for suspended cell cultures and 5 × 10^3 cells/well for monolayer cultures); on the same day (suspended cell cultures) or on the following day (monolayer cultures), compounds were added at the appropriate dilutions. Plates were incubated under standard conditions for 48 h. Thereafter, 10 μL of MTT (Sigma) in phosphate-buffered saline (5 mg/mL) was added. The plates were incubated for an additional 4 h, and 150 μL of dimethyl sulfoxide (DMSO) was added to dissolve the formazan crystals. The optical density was read on a HALO MPR-95 Microplate Reader (Dynamica Scientific Ltd., Australia) at 570 nm. The antiproliferative effects were determined as degrees of inhibition of tumor cells (%).

EGFR = target: T5, EGFR (Homo sapiens, UniProt P00533); test: ADP-Glo kinase inhibitory assay, EGFR; assay type: biochemical; settings: read-out: % Inhibition at 10 nM, EGFR
T5 construct: purchased Promega
Experimental: as §1, §2, §3

[2] = test system: HL-60 (promyelocytic leukemia); test: MTT anti-proliferative assay, HL-60; assay type: cell-based, human; settings: Homo sapiens, HL-60, 48 h, 50% growth inhibition
Experimental: as §4, §5

PDGFRb = target: T6, PDGFRb (Homo sapiens, UniProt P09619); test: ADP-Glo kinase inhibitory assay, PDGFRb; assay type: biochemical; settings: read-out: % Inhibition at 10 nM, PDGFRb
T6 construct: purchased Promega
Experimental: as §1, §2, §3

IGF1R = target: T7, IGF1R (Homo sapiens, UniProt P08069); test: ADP-Glo kinase inhibitory assay, IGF1R; assay type: biochemical; settings: read-out: % Inhibition at 10 nM, IGF1R
T7 construct: purchased Promega
Experimental: as §1, §2, §3

[3] = test system: RPMI 1788 (B lymphocyte, human normal cells); test: MTT assay on normal cells RPMI 1788; assay type: cell-based; settings: MTT 48 h
Experimental: as §4
Human cell lines were obtained from the Institute of Cytology, Russian Academy of Sciences. The cell lines studied were maintained in RPMI 1640 medium (AppliChem, Darmstadt, Germany) supplemented with 20% (HL-60, RPMI 1788) fetal calf serum (HyClone, Cramlington, UK), in DMEM (A 549) and Eagle’s MEM (AppliChem) (MCF7, HeLa) with 10% fetal calf serum (HyClone). Cells were cultivated at 37 °C in a humidified atmosphere of 5% CO2. Cellular sensitivities to clofarabine and its lipid derivatives were measured with the MTT assay. Cells were plated in triplicate in 96-well plates (10^5 cells/well for suspended cell cultures and 5 × 10^3 cells/well for monolayer cultures); on the same day (suspended cell cultures) or on the following day (monolayer cultures), compounds were added at the appropriate dilutions. Plates were incubated under standard conditions for 48 h. Thereafter, 10 μL of MTT (Sigma) in phosphate-buffered saline (5 mg/mL) was added. The plates were incubated for an additional 4 h, and 150 μL of dimethyl sulfoxide (DMSO) was added to dissolve the formazan crystals. The optical density was read on a HALO MPR-95 Microplate Reader (Dynamica Scientific Ltd., Australia) at 570 nm. The antiproliferative effects were determined as degrees of inhibition of tumor cells (%).

KDR (VEGFR2) = target: T8, KDR (VEGFR2) (Homo sapiens, UniProt P35968); test: ADP-Glo kinase inhibitory assay, KDR; assay type: biochemical; settings: 10 nM
T8 construct: purchased Promega
Experimental: as §1
Vascular endothelial growth factor receptor 2 (VEGFR2), also called kinase insert domain receptor (KDR), is a tyrosine kinase receptor for VEGFs that plays a central role in tumor angiogenesis; therefore, the inhibition of VEGFR2 is a promising therapeutic strategy for inhibiting angiogenesis and tumor growth.
as §2, §3

[4] = test system: MCF-7 (breast adenocarcinoma); test: MTT anti-proliferative assay, MCF-7; assay type: cell-based; settings: Homo sapiens, MCF7, 48 h, 50% growth inhibition
Experimental: as §4, §5

A549 (lung carcinoma) = test: MTT anti-proliferative assay, A-549; assay type: cell-based; settings: Homo sapiens, 48 h, 50% growth inhibition
Experimental: as §4, §5

[5] = test system: OKP-GS (carcinoma of the kidney); test: MTT anti-proliferative assay, OKP-GS; assay type: cell-based; settings: Homo sapiens, 48 h, 50% growth inhibition
Experimental: as §4, §5

T5 sequence (P00533 25-1210): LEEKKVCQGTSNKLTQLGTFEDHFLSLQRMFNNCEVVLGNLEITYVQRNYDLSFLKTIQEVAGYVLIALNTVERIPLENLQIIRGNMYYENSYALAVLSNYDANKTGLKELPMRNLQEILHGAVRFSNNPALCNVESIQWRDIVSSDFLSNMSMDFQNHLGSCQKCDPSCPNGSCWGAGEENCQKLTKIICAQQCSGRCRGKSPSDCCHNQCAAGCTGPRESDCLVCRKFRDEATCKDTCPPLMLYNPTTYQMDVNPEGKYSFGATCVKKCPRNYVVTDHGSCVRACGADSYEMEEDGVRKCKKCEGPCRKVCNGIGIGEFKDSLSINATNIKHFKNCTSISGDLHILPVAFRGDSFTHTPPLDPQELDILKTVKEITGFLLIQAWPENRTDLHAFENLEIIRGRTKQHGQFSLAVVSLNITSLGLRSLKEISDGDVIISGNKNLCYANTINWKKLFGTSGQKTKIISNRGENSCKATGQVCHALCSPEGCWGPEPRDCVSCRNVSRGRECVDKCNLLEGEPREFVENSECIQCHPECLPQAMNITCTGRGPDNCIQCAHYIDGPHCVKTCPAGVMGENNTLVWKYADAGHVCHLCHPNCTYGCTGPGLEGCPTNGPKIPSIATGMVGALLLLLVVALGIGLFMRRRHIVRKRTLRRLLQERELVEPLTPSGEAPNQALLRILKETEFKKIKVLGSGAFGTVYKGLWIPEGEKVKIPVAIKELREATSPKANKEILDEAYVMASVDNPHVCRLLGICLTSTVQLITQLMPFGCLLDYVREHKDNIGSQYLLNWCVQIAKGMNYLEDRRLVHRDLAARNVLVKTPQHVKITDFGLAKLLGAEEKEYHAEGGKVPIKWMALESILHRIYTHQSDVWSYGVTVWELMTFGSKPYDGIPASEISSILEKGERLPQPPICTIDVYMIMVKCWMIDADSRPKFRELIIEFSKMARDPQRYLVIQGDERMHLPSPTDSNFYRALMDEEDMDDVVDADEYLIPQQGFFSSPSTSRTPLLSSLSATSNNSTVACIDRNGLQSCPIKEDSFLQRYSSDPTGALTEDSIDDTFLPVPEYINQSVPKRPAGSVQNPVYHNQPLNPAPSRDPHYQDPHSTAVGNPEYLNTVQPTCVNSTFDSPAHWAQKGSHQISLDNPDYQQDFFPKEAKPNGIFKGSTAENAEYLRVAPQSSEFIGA
T7 sequence (P08069 31-1367): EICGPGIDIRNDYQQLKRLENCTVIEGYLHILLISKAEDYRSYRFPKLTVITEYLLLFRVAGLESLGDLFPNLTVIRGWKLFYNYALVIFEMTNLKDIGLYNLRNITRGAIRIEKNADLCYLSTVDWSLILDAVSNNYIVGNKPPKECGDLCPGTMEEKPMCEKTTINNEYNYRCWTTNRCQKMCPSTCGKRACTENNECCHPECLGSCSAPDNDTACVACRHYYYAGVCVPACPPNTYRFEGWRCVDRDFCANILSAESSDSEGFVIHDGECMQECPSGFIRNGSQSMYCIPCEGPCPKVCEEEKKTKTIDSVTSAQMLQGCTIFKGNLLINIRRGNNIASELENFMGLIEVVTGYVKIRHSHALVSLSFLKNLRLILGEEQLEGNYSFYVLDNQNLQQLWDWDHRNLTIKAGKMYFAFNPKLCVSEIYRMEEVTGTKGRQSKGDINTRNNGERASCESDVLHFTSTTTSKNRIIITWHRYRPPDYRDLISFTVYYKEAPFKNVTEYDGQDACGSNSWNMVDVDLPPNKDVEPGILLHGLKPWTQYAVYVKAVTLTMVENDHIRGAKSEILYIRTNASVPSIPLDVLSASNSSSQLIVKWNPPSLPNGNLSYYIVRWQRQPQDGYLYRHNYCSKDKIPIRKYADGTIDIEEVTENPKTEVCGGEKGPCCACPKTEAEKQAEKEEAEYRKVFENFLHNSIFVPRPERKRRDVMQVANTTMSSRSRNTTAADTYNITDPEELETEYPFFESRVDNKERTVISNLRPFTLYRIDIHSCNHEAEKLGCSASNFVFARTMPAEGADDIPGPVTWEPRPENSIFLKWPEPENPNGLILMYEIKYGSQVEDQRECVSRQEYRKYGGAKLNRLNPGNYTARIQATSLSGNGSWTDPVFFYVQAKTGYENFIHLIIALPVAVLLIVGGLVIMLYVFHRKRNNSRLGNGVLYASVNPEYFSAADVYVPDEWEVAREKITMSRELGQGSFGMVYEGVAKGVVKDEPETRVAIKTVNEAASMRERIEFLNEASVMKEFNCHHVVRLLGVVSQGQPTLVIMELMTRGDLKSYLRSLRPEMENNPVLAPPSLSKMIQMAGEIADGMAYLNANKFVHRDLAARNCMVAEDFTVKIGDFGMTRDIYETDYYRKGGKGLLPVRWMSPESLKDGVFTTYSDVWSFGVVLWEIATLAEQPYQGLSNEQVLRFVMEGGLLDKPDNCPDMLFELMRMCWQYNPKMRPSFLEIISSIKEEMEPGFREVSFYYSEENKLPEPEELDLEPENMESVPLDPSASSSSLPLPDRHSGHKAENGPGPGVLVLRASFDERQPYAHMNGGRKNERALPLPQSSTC
T2 sequence (Q15303 26-1308): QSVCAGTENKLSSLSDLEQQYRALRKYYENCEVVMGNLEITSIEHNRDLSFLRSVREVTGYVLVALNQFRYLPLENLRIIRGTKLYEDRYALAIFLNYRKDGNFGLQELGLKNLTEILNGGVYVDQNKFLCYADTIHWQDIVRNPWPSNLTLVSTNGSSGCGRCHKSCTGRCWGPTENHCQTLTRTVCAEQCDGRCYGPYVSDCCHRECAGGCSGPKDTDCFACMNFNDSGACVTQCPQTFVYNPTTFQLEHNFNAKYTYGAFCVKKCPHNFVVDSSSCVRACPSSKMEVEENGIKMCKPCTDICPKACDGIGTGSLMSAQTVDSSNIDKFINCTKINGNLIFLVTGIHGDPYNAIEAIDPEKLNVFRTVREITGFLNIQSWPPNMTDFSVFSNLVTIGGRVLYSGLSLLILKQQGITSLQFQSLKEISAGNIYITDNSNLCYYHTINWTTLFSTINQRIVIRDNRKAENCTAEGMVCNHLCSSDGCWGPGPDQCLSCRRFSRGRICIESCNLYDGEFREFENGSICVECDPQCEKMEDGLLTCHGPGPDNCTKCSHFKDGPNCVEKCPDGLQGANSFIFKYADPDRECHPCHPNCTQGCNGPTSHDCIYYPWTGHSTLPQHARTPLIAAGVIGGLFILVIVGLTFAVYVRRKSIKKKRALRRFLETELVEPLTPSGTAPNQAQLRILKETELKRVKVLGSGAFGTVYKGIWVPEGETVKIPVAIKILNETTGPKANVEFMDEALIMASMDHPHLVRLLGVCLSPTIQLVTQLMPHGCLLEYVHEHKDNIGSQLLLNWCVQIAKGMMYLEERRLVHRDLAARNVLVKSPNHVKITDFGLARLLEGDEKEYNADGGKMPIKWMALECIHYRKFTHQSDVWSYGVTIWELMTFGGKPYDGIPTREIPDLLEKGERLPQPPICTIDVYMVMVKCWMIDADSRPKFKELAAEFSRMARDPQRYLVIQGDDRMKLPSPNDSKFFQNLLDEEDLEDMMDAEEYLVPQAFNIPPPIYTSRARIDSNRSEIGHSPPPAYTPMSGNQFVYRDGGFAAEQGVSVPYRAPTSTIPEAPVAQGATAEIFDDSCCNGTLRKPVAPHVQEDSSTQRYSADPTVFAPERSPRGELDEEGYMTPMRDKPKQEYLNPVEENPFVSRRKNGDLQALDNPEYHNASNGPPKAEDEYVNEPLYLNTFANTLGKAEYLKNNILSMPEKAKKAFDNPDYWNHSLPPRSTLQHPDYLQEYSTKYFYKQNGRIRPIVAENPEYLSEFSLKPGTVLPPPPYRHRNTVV
T3 sequence (P04626 23-1255): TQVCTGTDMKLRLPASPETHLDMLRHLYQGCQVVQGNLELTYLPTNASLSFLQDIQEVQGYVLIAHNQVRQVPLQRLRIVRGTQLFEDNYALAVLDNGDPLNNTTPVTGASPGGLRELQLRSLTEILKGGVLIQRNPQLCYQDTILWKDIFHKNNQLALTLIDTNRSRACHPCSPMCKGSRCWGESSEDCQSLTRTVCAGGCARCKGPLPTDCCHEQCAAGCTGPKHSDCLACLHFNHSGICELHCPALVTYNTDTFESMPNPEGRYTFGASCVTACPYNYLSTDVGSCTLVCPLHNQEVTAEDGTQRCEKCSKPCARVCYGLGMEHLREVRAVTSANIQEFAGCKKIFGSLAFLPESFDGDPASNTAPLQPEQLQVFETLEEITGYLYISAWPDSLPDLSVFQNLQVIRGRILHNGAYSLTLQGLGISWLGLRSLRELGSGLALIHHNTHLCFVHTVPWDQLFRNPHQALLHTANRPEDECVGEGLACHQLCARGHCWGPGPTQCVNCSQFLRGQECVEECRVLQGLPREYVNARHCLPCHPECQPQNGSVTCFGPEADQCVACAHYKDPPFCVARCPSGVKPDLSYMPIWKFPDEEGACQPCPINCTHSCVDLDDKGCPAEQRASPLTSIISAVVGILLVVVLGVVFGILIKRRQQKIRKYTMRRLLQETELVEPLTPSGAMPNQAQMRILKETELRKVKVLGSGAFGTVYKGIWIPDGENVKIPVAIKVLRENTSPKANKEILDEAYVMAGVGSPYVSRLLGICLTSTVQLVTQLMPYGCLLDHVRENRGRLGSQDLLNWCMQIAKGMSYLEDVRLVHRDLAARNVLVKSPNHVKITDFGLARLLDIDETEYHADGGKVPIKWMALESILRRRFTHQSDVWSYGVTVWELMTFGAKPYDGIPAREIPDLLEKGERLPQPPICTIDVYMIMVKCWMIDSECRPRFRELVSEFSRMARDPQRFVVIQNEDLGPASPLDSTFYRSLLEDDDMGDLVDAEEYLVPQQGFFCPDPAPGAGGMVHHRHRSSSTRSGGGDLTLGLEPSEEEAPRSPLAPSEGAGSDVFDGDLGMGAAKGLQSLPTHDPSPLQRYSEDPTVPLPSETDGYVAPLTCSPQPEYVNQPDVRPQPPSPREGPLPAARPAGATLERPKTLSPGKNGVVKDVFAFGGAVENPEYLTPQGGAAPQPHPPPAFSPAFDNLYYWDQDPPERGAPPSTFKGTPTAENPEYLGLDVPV

CCOC(=O)CCC(NC(=O)c1ccc(CNc2cc(-n3cnc(C)c3)cc(C(F)(F)F)c2)cc1)C(=O)OCC (stereo not drawn) [Compound 14, Diethyl(4-(((3-(4-methyl-1H-imidazol-1-yl)-5-(trifluoromethyl)phenyl)amino)methyl)benzoyl)glutamate]
inhibition at 0.01 µM (PDGFRa): 0%
inhibition at 0.01 µM (HER-4): 0%
inhibition at 0.01 µM (HER-2): 0%
selectivity for the gene insulin receptor, in words (InsR): high selectivity
inhibition at 0.01 µM (InsR): 23%
IC50 [1]: 50 µM
inhibition at 0.01 µM (EGFR): 0%
IC50 [2]: 45 µM
inhibition at 0.01 µM (PDGFRb): 0%
melting point: 125 to 127 °C
inhibition at 0.01 µM (IGF1R): 0%
inhibition at 100 µM [3]: 10.4%
inhibition at 0.01 µM (KDR (VEGFR2)): 0%

CNC(=O)c1cc(Oc2ccc(NC(=O)Nc3ccc(Cl)c(C(F)(F)F)c3)cc2)ccn1 [Sorafenib, reference compound]
IC50 [4]: 55 µM
IC50 (A549 (lung carcinoma)): 58 µM
IC50 [5]: 51 µM

Cc1cn(-c2cc(NC(=O)c3ccc(CN4CCN(C(=O)c5ccccc5F)CC4)cc3)cc(C(F)(F)F)c2)cn1 [Compound 28j, 4-{[4-(2-Fluorobenzoyl)piperazin-1-yl]methyl}-N-[3-(4-methyl-1H-imidazol-1-yl)-5-(trifluoromethyl)phenyl]benzamide]
inhibition at 0.01 µM (PDGFRa): 8%
inhibition at 0.01 µM (HER-4): 0%
inhibition at 0.01 µM (HER-2): 0%
selectivity for the gene insulin receptor, in words (InsR): high selectivity
inhibition at 0.01 µM (InsR): 50%
IC50 [1]: 6.9 µM
IC50 [4]: 71 µM
IC50 (A549 (lung carcinoma)): > 100 µM
inhibition at 0.01 µM (EGFR): 0%
IC50 [2]: 30.6 µM
inhibition at 0.01 µM (PDGFRb): 2%
melting point: 106 to 109 °C
inhibition at 0.01 µM (IGF1R): 0%
inhibition at 100 µM [3]: 6.44%
inhibition at 0.01 µM (KDR (VEGFR2)): 0%

Cc1cn(-c2cc(NC(=O)c3ccc(C)c(Nc4nccc(-c5cccnc5)n4)c3)cc(C(F)(F)F)c2)cn1 [Nilotinib, reference compound]
IC50 [1]: < 0.1 µM
IC50 [2]: 55 µM
IC50 [5]: 55 µM
inhibition at 100 µM [3]: < 0.1%

CCOC(=O)CC[C@H](NC(=O)c1ccc(CNc2nccc(-c3cccnc3)n2)cc1)C(=O)OCC [Compound 23, Diethyl (4-(((4-(pyridin-3-yl)pyrimidin-2-yl)amino)methyl)benzoyl)glutamate]
inhibition at 0.01 µM (PDGFRa): 0%
inhibition at 0.01 µM (HER-4): 12%
inhibition at 0.01 µM (HER-2): 0%
inhibition at 0.01 µM (InsR): 49%
IC50 [1]: 66 µM
inhibition at 0.01 µM (EGFR): 0%
IC50 [2]: 49 µM
inhibition at 0.01 µM (PDGFRb): 0%
melting point: 130 to 132 °C
inhibition at 0.01 µM (IGF1R): 1%
inhibition at 100 µM [3]: 11.5%
inhibition at 0.01 µM (KDR (VEGFR2)): 0%

Cc1cn(-c2cc(NC(=O)c3ccc(CNc4cc([N+](=O)[O-])ccc4C)cc3)cc(C(F)(F)F)c2)cn1 [Compound 9, N-(3-(4-methyl-1H-imidazol-1-yl)-5-(trifluoromethyl)phenyl)-4-(((2-methyl-5-nitrophenyl)amino)methyl)benzamide]
IC50 [1]: 51 µM
IC50 [4]: > 100 µM
IC50 (A549 (lung carcinoma)): > 100 µM
IC50 [2]: 57 µM
IC50 [5]: > 100 µM
melting point: 113 to 115 °C

Cc1cn(-c2cc(NC(=O)c3ccc(CN4CCN(C(=O)c5cccc(F)c5)CC4)cc3)cc(C(F)(F)F)c2)cn1 [Compound 28k, 4-{[4-(3-Fluorobenzoyl)piperazin-1-yl]methyl}-N-[3-(4-methyl-1H-imidazol-1-yl)-5-(trifluoromethyl)phenyl]benzamide]
inhibition at 0.01 µM (PDGFRa): 0%
inhibitory activity in relation to HER-4, in words (HER-4; 10 nM, compared with imatinib): comparable to imatinib
inhibition at 0.01 µM (HER-4): 43%
inhibition at 0.01 µM (HER-2): 0%
inhibition at 0.01 µM (InsR): 33%
IC50 [1]: 3.6 µM
inhibition at 0.01 µM (EGFR): 0%
IC50 [2]: 38.5 µM
inhibition at 0.01 µM (PDGFRb): 2%
melting point: 90 to 93 °C
inhibition at 0.01 µM (IGF1R): 0%
inhibition at 100 µM [3]: 3.14%
inhibition at 0.01 µM (KDR (VEGFR2)): 23%
